Test results as given in paper PMC7144022, “Quinolinecarboxamides Inhibit the Replication of the Bovine Viral Diarrhea Virus by Targeting a Hot Spot for the Inhibition of Pestivirus Replication in the RNA-Dependent RNA Polymerase” (Molecules, 2020).

Columns and labels:
BVDV NADL virus = experiment: CPE-based antiviral assay, BVDV NADL in MDBK cells (MTS/PMS); conditions: for EC50: Bovine viral diarrhea virus isolates and strains, MDBK, 72 h; for S.I.: selectivity index, CC50 vs EC50; for fold increase: sheet CSFCI#, potency relative to TO505-6180 (EC50 0.07 µM)
[1] = Cytotoxicity assay, proliferation of exponentially growing MDBK cells (MTS/PMS); assay type: cell-based, bovine; conditions: bovine
Procedure: Assays were carried out, as described previously.

| SMILES | EC50 (BVDV NADL virus) | S.I. (BVDV NADL virus) | fold increase (BVDV NADL virus) | CC50 at 5 days [1] |
| --- | --- | --- | --- | --- |
| Cc1cccc2sc(NC(=O)c3cc(-c4ccccc4)nc4ccccc34)nc12 [CSFC-1, Cc1cccc2sc(nc12)NC(=O)c1cc(nc2ccccc21)c1ccccc1] | 0.3 µM | 333 | 0.23 | > 100 µM |
| Cc1ccc2nc(NC(=O)c3cc(-c4ccccc4)nc4ccccc34)sc2c1 [CSFC-2, Cc1ccc2nc(NC(=O)c3cc(nc4ccccc43)c3ccccc3)sc2c1] | 5.7 µM | 18 | 0.0123 | > 100 µM |
| O=C(Nc1nc2ccccc2[nH]1)c1cc(-c2ccccc2)nc2ccccc12 [CSFC-3, O=C(Nc1nc2ccccc2[NH]1)c1cc(nc2ccccc21)c1ccccc1] | > 100 µM | 1 | 0.0007 | > 100 µM |
| Cn1c(NC(=O)c2cc(-c3ccccc3)nc3ccccc23)nc2ccccc21 [CSFC-4, O=C(Nc1nc2ccccc2n1C)c1cc(nc2ccccc21)c1ccccc1] | > 100 µM | 1 | 0.0007 | > 100 µM |
| O=C(Nc1nc2cc(Cl)ccc2o1)c1cc(-c2ccccc2)nc2ccccc12 [CSFC-5, Clc1cc2nc(NC(=O)c3cc(nc4ccccc43)c3ccccc3)oc2cc1] | > 100 µM | 1 | 0.0007 | > 100 µM |
| O=C(Nc1ccccn1)c1cc(-c2ccccc2)nc2ccccc12 [CSFC-6, O=C(Nc1ccccn1)c1cc(nc2ccccc21)c1ccccc1] | > 100 µM | 1 | 0.0007 | > 100 µM |
| O=C(Nc1cccnc1)c1cc(-c2ccccc2)nc2ccccc12 [CSFC-7, O=C(Nc1cccnc1)c1cc(nc2ccccc21)c1ccccc1] | > 100 µM | 1 | 0.0007 | > 100 µM |
| O=C(Nc1ccncc1)c1cc(-c2ccccc2)nc2ccccc12 [CSFC-8, O=C(Nc1ccncc1)c1cc(nc2ccccc21)c1ccccc1] | > 100 µM | 1 | 0.0007 | > 100 µM |
| COc1ccc2nc(NC(=O)c3cc(-c4ccccc4)nc4ccccc34)sc2c1 [CSFC-9, COc1ccc2nc(NC(=O)c3cc(nc4ccccc43)c3ccccc3)sc2c1] | 0.3 µM | 333 | 0.23 | > 100 µM |
| O=C(Nc1nc2ccc(Cl)cc2s1)c1cc(-c2ccccc2)nc2ccccc12 [CSFC-10, Clc1ccc2nc(NC(=O)c3cc(nc4ccccc43)c3ccccc3)sc2c1] | 0.5 µM | 200 | 0.14 | > 100 µM |
| Cc1cc2nc(NC(=O)c3cc(-c4ccccc4)nc4ccccc34)sc2cc1C [CSFC-11, Cc1cc2nc(NC(=O)c3cc(nc4ccccc43)c3ccccc3)sc2cc1C] | 0.3 µM | 333 | 0.23 | > 100 µM |
| O=C(Nc1nc2ccc([N+](=O)[O-])cc2s1)c1cc(-c2ccccc2)nc2ccccc12 [CSFC-12, [O-][N+](=O)c1ccc2nc(NC(=O)c3cc(nc4ccccc43)c3ccccc3)sc2c1] | > 100 µM | 0.5 | 0.0007 | 46.8 µM |
| O=C(Nc1nc2ccccc2s1)c1cc(-c2ccccc2)nc2ccccc12 [CSFC-13, O=C(Nc1nc2ccccc2s1)c1cc(nc2ccccc21)c1ccccc1] | 1.2 µM |  | 0.06 | > 100 µM |
| O=C(Nc1nc2ccc(Br)cc2s1)c1cc(-c2ccccc2)nc2ccccc12 [CSFC-14, Brc1ccc2nc(NC(=O)c3cc(nc4ccccc43)c3ccccc3)sc2c1] | 1.4 µM | 71 | 0.05 | > 100 µM |
| O=C(Nc1nc2c(Cl)cccc2s1)c1cc(-c2ccccc2)nc2ccccc12 [CSFC-15, Clc1cccc2sc(nc21)NC(=O)c1cc(nc2ccccc21)c1ccccc1] | 0.8 µM | 125 | 0.09 | > 100 µM |
